Results published in patent US20170188607A1, “SOLUBILIZATION OF A SWEET MODULATOR AND FLAVOR” (Firmenich SA, priority 2014, published 2017).

Experiment: Crystallization onset of supersaturated solution stirred at 20° C., followed in a Crystalline PV device with CCD cameras
Format: physicochemical
Method: (§1) A concentrated solution 2 of (S)-1-(3-(((4-amino-2,2-dioxido-1H-benzo[c][1,2,6]thiadiazin-5-yl)oxy)methyl)piperidin-1-yl)-3-methylbutan-1-one at 1% (w/w) (10000 ppm) was prepared in water. The pH was adjusted to 11 using NaOH to form the (S)-1-(3-(((4-amino-2,2-dioxido-1H-benzo[c][1,2,6]thiadiazin-5-yl)oxy)methyl)piperidin-1-yl)-3-methylbutan-1-one sodium salt, and a homogeneous solution was obtained. Next, a syrup was prepared by mixing an aqueous solution of HFCS, citric acid and deionized water. […] of 100 ppm of (S)-1-(3-(((4-amino-2,2-dioxido-1H-benzo[c][1,2,6]thiadiazin-5-yl)oxy)methyl)piperidin-1-yl)-3-methylbutan-1-one, i.e. about 15 times above the intrinsic solubility of the compound at 20° C. The sample was stirred at 20° C. and crystallization was followed in a Crystalline PV device equipped with CCD cameras. Crystallization started after about 530 minutes.
as §1, with “acid, HydroxyPropyl Cellulose (HPC) 100k” for “acid”, “deionized water. The final syrup contained 43% fructose, 1% citric acid, 0.05% HPC and 55.95%” for “deionized”, “cameras.” for “cameras. Crystallization started after about 530 minutes.”
A concentrated solution 2 of (S)-1-(3-(((4-amino-2,2-dioxido-1H-benzo[c][1,2,6]thiadiazin-5-yl)oxy)methyl)piperidin-1-yl)-3-methylbutan-1-one at 1% (w/w) (10000 ppm) was prepared in water. The pH was adjusted to 11 using NaOH to form the (S)-1-(3-(((4-amino-2,2-dioxido-1H-benzo[c][1,2,6]thiadiazin-5-yl)oxy)methyl)piperidin-1-yl)-3-methylbutan-1-one sodium salt, and a homogeneous solution was obtained. Next, a citric acid buffer solution was prepared by mixing 50 mM citric acid in deionised water (pH=2.8). An aliquot of solution 2 was diluted 100 times with the buffer solution to yield a final concentration of 100 ppm of (S)-1-(3-(((4-amino-2,2-dioxido-1H-benzo[c][1,2,6]thiadiazin-5-yl)oxy)methyl)piperidin-1-yl)-3-methylbutan-1-one, i.e. about 15 times above the intrinsic solubility of the compound at 20° C. The sample was stirred at 20° C. and crystallization was followed in a Crystalline PV device equipped with CCD cameras.
A concentrated solution 2 of (S)-1-(3-(((4-amino-2,2-dioxido-1H-benzo[c][1,2,6]thiadiazin-5-yl)oxy)methyl)piperidin-1-yl)-3-methylbutan-1-one at 1% (w/w) (10000 ppm) was prepared in water. The pH was adjusted to 11 using NaOH to form the (S)-1-(3-(((4-amino-2,2-dioxido-1H-benzo[c][1,2,6]thiadiazin-5-yl)oxy)methyl)piperidin-1-yl)-3-methylbutan-1-one sodium salt, and a homogeneous solution was obtained. Next, a citric acid buffer solution was prepared by mixing 50 mM citric acid and carboxymethyl cellulose (CMC) in deionised water (pH=2.8). The final water solution contained 50 mM citric acid and 0.05% CMC. […]

time until crystallization started (Example 5 (comparative): 100 ppm, syrup 43 Brix (43% fructose, 1% citric acid), no polymer): about 530 minutes | time until first crystals were observed (Example 6: 100 ppm, syrup 43 Brix with 0.05% HPC 100k): about 3520 minutes | time until first crystals were observed (Example 7 (comparative): 100 ppm, 50 mM citric acid buffer pH 2.8, no polymer): about 166 minutes | time until first crystals were observed (Example 8: 100 ppm, 50 mM citric acid buffer pH 2.8 with 0.05% CMC): about 466 minutes
SMILES: CC(C)CC(=O)N1CCC[C@H](COc2cccc3c2C(N)=NS(=O)(=O)N3)C1 [(S)-1-(3-(((4-amino-2,2-dioxido-1H-benzo[c][1,2,6]thiadiazin-5-yl)oxy)methyl)piperidin-1-yl)-3-methylbutan-1-one]
crystallization observation (Example 9: 100 ppm, syrup 43 Brix with 0.05% HPMC 100k): No crystallization was observed after seven days
